Values quoted from earlier work, collected in patent publication US7718385B2, “Bioactivation of alkylating agents for cancer treatment” (priority 2003, dated 2010).

Columns and labels:
[1] = system: UACC-257; conditions: UACC-257, Melanoma, cited from earlier work
[2] = system: MDA-MB 231/ATCC; conditions: cited from earlier work
[3] = system: SNB-19; conditions: SNB-19, Central Nervous System, cited from earlier work
[4] = system: OVCAR-4; conditions: OVCAR-4, Ovarian, cited from earlier work
[5] = system: NCI/ADR-RES; conditions: cited from earlier work
[6] = system: MCF7; conditions: MCF7, Breast, cited from earlier work
[7] = system: SK-MEL-28; conditions: SK-MEL-28, Melanoma, cited from earlier work
[8] = system: SNB-75; conditions: SNB-75, Central Nervous System, cited from earlier work
[9] = system: NCI-H23; conditions: NCI-H23, Non-Small Cell Lung, cited from earlier work
[10] = system: SK-OV-3; conditions: SK-OV-3, Ovarian, cited from earlier work
[11] = system: HL-60(TB); conditions: cited from earlier work
[12] = system: EKVX; conditions: cited from earlier work
[13] = system: SK-MEL-2; conditions: SK-MEL-2, Melanoma, cited from earlier work
[14] = system: HOP-62; conditions: HOP-62, Non-Small Cell Lung, cited from earlier work
[15] = system: TK-10; conditions: TK-10, Renal, cited from earlier work
[16] = system: SR; conditions: cited from earlier work
[17] = system: M14; conditions: M14, Melanoma, cited from earlier work
[18] = system: LOX IMVI; conditions: cited from earlier work
[19] = system: OVCAR-5; conditions: OVCAR-5, Ovarian; cited from earlier work
[20] = system: ACHN; conditions: Renal; cited from earlier work
[21] = system: CCRF-CEM; conditions: cited from earlier work

Compound: CC1=C(CO)C2=C(C)C3(CC3)[C@@](C)(O)C(=O)C2=C1 [Irofulven, 6-hydroxymethylacylfulvene]
- GI50 [1]: 251 nM
- TGI [1]: 5.01E−07
- log(GI50) [1]: −6.6
- log(LC50) [1]: −5.3
- log(TGI) [1]: −6.3
- CC50 ([1]; read-out: LC50): 5010 nM
- GI50 ([2]; Breast): 316 nM
- TGI ([2]; Breast): 1.26E−06
- log(GI50) ([2]; Breast): −6.5
- log(LC50) ([2]; Breast): −4.1
- log(TGI) ([2]; Breast): −5.9
- CC50 ([2]; read-out: LC50, Breast): 79400 nM
- GI50 [3]: 316 nM
- TGI [3]: 1.00E−05
- log(GI50) [3]: −6.5
- log(LC50) [3]: −4.2
- log(TGI) [3]: −5
- CC50 ([3]; read-out: LC50): 63100 nM
- GI50 [4]: 251 nM
- TGI [4]: 6.31E−07
- log(GI50) [4]: −6.6
- log(LC50) [4]: −4.6
- log(TGI) [4]: −6.2
- CC50 ([4]; read-out: LC50): 25100 nM
- GI50 ([5]; Breast): 251 nM
- TGI ([5]; Breast): 7.94E−07
- log(GI50) ([5]; Breast): −6.6
- log(LC50) ([5]; Breast): −5.3
- log(TGI) ([5]; Breast): −6.1
- CC50 ([5]; read-out: LC50, Breast): 5010 nM
- GI50 [6]: 251 nM
- TGI [6]: 2.00E−06
- log(GI50) [6]: −6.6
- log(TGI) [6]: −5.7
- CC50 ([6]; read-out: LC50): ≥ 100000 nM
- GI50 [7]: 631 nM
- TGI [7]: 1.58E−06
- log(GI50) [7]: −6.2
- log(LC50) [7]: −4.7
- log(TGI) [7]: −5.8
- CC50 ([7]; read-out: LC50): 20000 nM
- GI50 [8]: 200 nM
- TGI [8]: 5.01E−07
- log(GI50) [8]: −6.7
- log(LC50) [8]: −5.7
- log(TGI) [8]: −6.3
- CC50 ([8]; read-out: LC50): 2000 nM
- GI50 [9]: 79.4 nM
- TGI [9]: 3.16E−07
- log(GI50) [9]: −7.1
- log(LC50) [9]: −6.1
- log(TGI) [9]: −6.5
- CC50 ([9]; read-out: LC50): 794 nM
- GI50 [10]: 251 nM
- TGI [10]: 1.00E−06
- log(GI50) [10]: −6.6
- log(LC50) [10]: −5
- log(TGI) [10]: −6
- CC50 ([10]; read-out: LC50): 10000 nM
- GI50 ([11]; Leukemia): 251 nM
- TGI ([11]; Leukemia): 2.00E−06
- log(GI50) ([11]; Leukemia): −6.6
- log(TGI) ([11]; Leukemia): −5.7
- CC50 ([11]; read-out: LC50, Leukemia): ≥ 100000 nM
- GI50 ([12]; Non-Small Cell Lung): 200 nM
- TGI ([12]; Non-Small Cell Lung): 5.01E−07
- log(GI50) ([12]; Non-Small Cell Lung): −6.7
- log(LC50) ([12]; Non-Small Cell Lung): −5.4
- log(TGI) ([12]; Non-Small Cell Lung): −6.3
- CC50 ([12]; read-out: LC50, Non-Small Cell Lung): 3980 nM
- GI50 [13]: 200 nM
- TGI [13]: 3.98E−07
- log(GI50) [13]: −6.7
- log(LC50) [13]: −6.2
- log(TGI) [13]: −6.4
- CC50 ([13]; read-out: LC50): 631 nM
- GI50 [14]: 158 nM
- TGI [14]: 3.98E−07
- log(GI50) [14]: −6.8
- log(LC50) [14]: −5.9
- log(TGI) [14]: −6.4
- CC50 ([14]; read-out: LC50): 1260 nM
- GI50 [15]: 251 nM
- TGI [15]: 1.26E−06
- log(GI50) [15]: −6.6
- log(TGI) [15]: −5.9
- CC50 ([15]; read-out: LC50): ≥ 100000 nM
- GI50 ([16]; Leukemia): 794 nM
- TGI ([16]; Leukemia): 1.00E−04
- log(GI50) ([16]; Leukemia): −6.1
- log(TGI) ([16]; Leukemia): −4
- CC50 ([16]; read-out: LC50, Leukemia): ≥ 100000 nM
- GI50 [17]: 251 nM
- TGI [17]: 6.31E−07
- log(GI50) [17]: −6.6
- log(LC50) [17]: −5.7
- log(TGI) [17]: −6.2
- CC50 ([17]; read-out: LC50): 2000 nM
- GI50 ([18]; Melanoma): 631 nM
- TGI ([18]; Melanoma): 3.16E−06
- log(GI50) ([18]; Melanoma): −6.2
- log(LC50) ([18]; Melanoma): −4.4
- log(TGI) ([18]; Melanoma): −5.5
- CC50 ([18]; read-out: LC50, Melanoma): 39800 nM
- GI50 [19]: 158 nM
- TGI [19]: 5.01E−07
- log(GI50) [19]: −6.8
- log(LC50) [19]: −4.3
- log(TGI) [19]: −6.3
- GI50 [20]: 251 nM
- TGI [20]: 1.00E−06
- log(GI50) [20]: −6.6
- log(TGI) [20]: −6
- GI50 ([21]; Leukemia): 2000 nM
- TGI ([21]; Leukemia): 3.16E−05
- log(GI50) ([21]; Leukemia): −5.7
- log(TGI) ([21]; Leukemia): −4.5
- CC50 ([21]; read-out: LC50, Leukemia): ≥ 100000 nM
